Columns and labels:
SD rats = test: Assay for the facilitatory effect on urinary glucose excretion; assay type: in vivo; conditions: glucose load 2 g/kg, 24 hours urine
Experimental: Assay for the Facilitatory Effect on Urinary Glucose Excretion
(§1) As experimental animal, overnight fasted SD rats (Japan SLC. Inc., male, 7 weeks of age, 202-221 g) were used. A Test compound was suspended in 0.5% sodium carboxymethylcellulose solution at the concentration of 2 mg/mL. When homogenous suspension was not obtained in this condition, the test compound was dissolved in ethanol at the concentration of 200 mg/mL of active form and then 2 mg/mL suspension was obtained by adding this solution to 99 times volumes of 0.5% sodium carboxymethylcellulose solution. A part of this suspension was diluted with 0.5% sodium carboxymethylcellulose solution and then 0.6 and 0.2 mg/mL suspensions were prepared. After the body weights of rats were measured, the test suspension was orally administered at the dose of 5 mL/kg (1, 3 and 10 mg/kg). For control, just only 0.5% sodium carboxymethylcellulose solution was orally administered at the dose of 5 mL/kg. Immediately after this oral administration, 400 g/L glucose solution was orally administered at the dose of 5 mL/kg (2 g/kg). The oral administration was performed with gastric tube for rat and 2.5 mL syringe. The head count in one group was 3. Collection of urine was performed in metabolic cage after the glucose administration was finished. The sampling time for collection of urine was 24 hours after the glucose administration. After collection of urine was finished, the urine volume was recorded and the urinary glucose concentration was measured. The glucose concentration was measured with a kit for laboratory test: Glucose B-Test WAKO (Wako Pure Chemical Industries, Ltd.). The amount of urinary glucose excretion in 24 hours per 200 g of body weight was calculated from urine volume, urinary glucose concentration and body weight.
as §1, with “bodyweights” for “body weights”

ICR mice = test: Acute toxicity test; assay type: in vivo; conditions: male ICR mice, oral 2000 mg/kg, observation until 24 hours, 5 animals in each group
Experimental: After 4 week old male ICR mice (Japan SLC. Inc., 20-25 g, 5 animals in each group) were fasted for 4 hours, the suspension (200 mg/mL) prepared by adding of 0.5% sodium carboxymethylcellulose solution to the test compound was orally administered at the dose of 10 mL/kg (2000 mg/kg). Observation was performed until 24 hours after the administration.

human SGLT2 = molecular target: T1, human SGLT2 (Homo sapiens, UniProt P31639, I433V); test: Assay for inhibitory effect on human SGLT2 activity (methyl-α-D-glucopyranoside uptake in COS-7 cells transiently expressing human SGLT2); assay type: cell-based; conditions: for IC50: inhibition of methyl-α-D-glucopyranoside uptake, COS-7 cells expressing human SGLT2, 37° C., 2 hours
T1 construct: expressed in transfected cells; host or cells: COS-7 cells (RIKEN CELL BANK RCB0539), transient, electroporation
T1 sequence (P31639 1-672 I433V): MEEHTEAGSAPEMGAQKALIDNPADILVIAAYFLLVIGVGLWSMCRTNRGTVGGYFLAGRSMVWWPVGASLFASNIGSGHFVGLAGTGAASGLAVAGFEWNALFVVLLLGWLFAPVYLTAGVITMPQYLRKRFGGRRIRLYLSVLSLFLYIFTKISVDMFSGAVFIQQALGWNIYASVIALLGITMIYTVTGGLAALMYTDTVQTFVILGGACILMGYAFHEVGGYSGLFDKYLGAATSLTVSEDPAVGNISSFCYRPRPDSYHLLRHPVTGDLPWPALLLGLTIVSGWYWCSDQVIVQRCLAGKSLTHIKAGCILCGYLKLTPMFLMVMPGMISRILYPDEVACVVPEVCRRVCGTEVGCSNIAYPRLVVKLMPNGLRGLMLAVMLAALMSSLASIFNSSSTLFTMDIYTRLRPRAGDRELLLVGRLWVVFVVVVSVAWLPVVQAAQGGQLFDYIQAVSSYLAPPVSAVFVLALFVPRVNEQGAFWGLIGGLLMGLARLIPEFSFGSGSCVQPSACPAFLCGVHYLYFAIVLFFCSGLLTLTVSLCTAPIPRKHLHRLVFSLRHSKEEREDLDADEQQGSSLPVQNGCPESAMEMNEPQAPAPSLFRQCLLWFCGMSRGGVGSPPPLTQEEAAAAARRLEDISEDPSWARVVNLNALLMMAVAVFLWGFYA
Experimental: Assay for Inhibitory Effect on Human SGLT2 Activity
1) Construction of the Plasmid Vector Expressing Human SGLT2
Preparation of the cDNA library for PCR amplification was performed by reverse transcription of a total RNA deprived from human kidney (Ori gene) with oligo dT as the primer, using SUPERSCRIPT Preamplification System (Gibco-BRL: LIFE TECHNOLOGIES). The DNA fragment coding for human SGLT2 was amplified by the PCR reaction, in which the human kidney cDNA library described above was used as the template and the following oligo nucleotides 0702F and 0712R, presented as sequence number 1 and 2 respectively, were used as the primers. The amplified DNA fragment was ligated into pCR-Blunt (Invitrogen), a vector for cloning, according to standard method of the kit. The Escherichia coli HB101 was transformed according to usual method and then selection of the transformants was performed on the LB agar medium containing 50 μg/mL of kanamycin. After plasmid DNA was extracted and purified from the one of the transformants, amplifying of the DNA fragment coding for human SGLT2 was performed by the PCR reaction, in which the following oligo nucleotides 0714F and 0715R, presented as sequence number 3 and 4 respectively, were used as the primers. The amplified DNA fragment was digested with restriction enzymes, Xho I and Hind III, and then purified with Wizard Purification System (Promega). This purified DNA fragment was inserted at into the corresponding restriction sites of pcDNA3.1 (−) Myc/His—B (Invitrogen), a vector for expressing of fusion protein. The Escherichia coli HB101 was transformed according to usual method and then selection of the transformant was performed on the LB agar medium containing 100 μg/mL of ampicillin. After plasmid DNA was extracted and purified from this transformant, the base sequence of the DNA fragment inserted at the multi-cloning sites of the vector pcDNA3.1 (−) Myc/His—B was analyzed. […] Sequentially, a clone in which valine is substituted for isoleucine-433 was obtained. This plasmid vector expressing human SGLT2 in which the peptide presented as sequence number 5 is fused to the carboxyl terminal alanine residue was designated KL29.
2) Preparation of the Cells Expressing Transiently Human SGLT2
KL29, the plasmid coding human SGLT2, was transfected into COS-7 cells (RIKEN CELL BANK RCB0539) by electroporation. Electroporation was performed with GENE PULSER II (Bio-Rad Laboratories) under the condition: 0.290 kV, 975 μF, 2×10^6 cells of COS-7 cell and 20 μg of KL29 in 500 μL of OPTI-MEM I medium (Gibco-BRL: LIFE TECHNOLOGIES) in the 0.4 cm type cuvette. After the gene transfer, the cells were harvested by centrifugation and resuspended with OPTI-MEM I medium (1 mL/cuvette). To each well in 96-wells plate, 125 μL of this cell suspension was added. After overnight culture at 37° C. under 5% CO2, 125 μL of DMEM medium which is containing 10% of fetal bovine serum (Sanko Jyunyaku), […] sodium penicillin G (Gibco-BRL: LIFE TECHNOLOGIES), 100 μg/mL streptomycin sulfate (Gibco-BRL: LIFE TECHNOLOGIES) was added to each well. These cells were cultured until the next day and then they were used for the measurement of the inhibitory activity against the uptake of methyl-α-D-glucopyranoside.
3) Measurement of the Inhibitory Activity Against the Uptake of methyl-α-D-glucopyranoside
After a test compounds was dissolved in dimethyl sulfoxide and diluted with the uptake buffer (a pH 7.4 buffer containing 140 mM sodium chloride, 2 mM potassium chloride, 1 mM calcium chloride, 1 mM magnesium chloride, 5 mM methyl-α-D-glucopyranoside, 10 mM 2-[4-(2-hydroxyethyl)-1-piperazinyl]ethane sulfonic acid and 5 mM tris(hydroxymethyl)aminomethane), each diluent was used as test sample for measurement of the inhibitory activity. […]

normal mice = conditions: cited from earlier work

| Compound | Amount of Urinary Glucose Excretion (SD rats; oral dose 1 mg/kg) | Amount of Urinary Glucose Excretion (SD rats; oral dose 3 mg/kg) | Amount of Urinary Glucose Excretion (SD rats; oral dose 10 mg/kg) | IC50 (human SGLT2) [nM] | further results |
| --- | --- | --- | --- | --- | --- |
| CCOC(=O)OC[C@H]1O[C@@H](Oc2nn(C(C)C)c(C)c2Cc2ccc(OC(C)C)cc2)[C@H](O)[C@@H](O)[C@@H]1O [Example 1, 3-(6-O-Ethoxycarbonyl-β-D-glucopyranosyloxy)-4-[(4-isopropoxyphenyl)methyl]-1-isopropyl-5-methylpyrazole] | 1.6 mg/24 hours · 200 g body weight | 28.3 mg/24 hours · 200 g body weight | 127.5 mg/24 hours · 200 g body weight | – | – |
| COC(=O)OC[C@H]1O[C@@H](Oc2nn(C(C)C)c(C)c2Cc2ccc(OC(C)C)cc2)[C@H](O)[C@@H](O)[C@@H]1O [Example 15, 4-[(4-Isopropoxyphenyl)methyl]-1-isopropyl-3-(6-O-methoxycarbonyl-β-D-glucopyranosyloxy)-5-methylpyrazole] | 1.7 mg/24 hours · 200 g body weight | 36.8 mg/24 hours · 200 g body weight | 167.3 mg/24 hours · 200 g body weight | – | – |
| COC(=O)OC[C@H]1O[C@@H](Oc2n[nH]c(C)c2Cc2ccc(OC(C)C)cc2)[C@H](O)[C@@H](O)[C@@H]1O [Example 48, 4-[(4-Isopropoxyphenyl)methyl]-3-(6-O-methoxycarbonyl-β-D-glucopyranosyloxy)-5-methyl-1H-pyrazole] | – | – | – | – | Death number (ICR mice): 0/5 |
| Cc1c(Cc2ccc(OC(C)C)cc2)c(O[C@@H]2O[C@H](CO)[C@@H](O)[C@H](O)[C@H]2O)nn1C(C)C [Reference Example 72, 3-(β-D-Glucopyranosyloxy)-4-[(4-isopropoxyphenyl)methyl]-1-isopropyl-5-methylpyrazole] | – | – | – | 369 | – |
| CSc1ccc(Cc2c(C(F)(F)F)[nH][nH]c2=O)cc1 [WAY-123783, reference compound] | – | – | – | > 100000 | inhibitory activity in human SGLT2 (in words) (human SGLT2): extremely weak inhibitory activity; amount of excreted glucose (normal mice): increased |

— patent US20060035847A1, “Glucopyranosyloxyprazole derivatives and use thereof in medicines” (KISSEI PHARMACEUTICAL CO., LTD., priority 2000, published 2006)
